Patent US5217984A, “1-phenyl substituted-1H, 3H-thiazole [3,4-a] benzimidazoles and pharmaceutical compositions containing them” (priority 1990, dated 1993)
Where two headings read alike, the source gives them in different places.

Legend:
HIV = assay: HIV-induced cytopathogenicity in human T4-lymphocyte cell line (CEM); type: cell-based; details: for EC50: Human immunodeficiency virus 1, CCRF-CEM, read-out: EC50 (50% reduction of the viral cytopathic effect); for TI50 (therapeutic index): IC50/EC50 ratio
Procedure: (§1) For their effects on HIV-induced cytopathogenicity in human T4 -lymphocyte cell line (CEM), the compounds of the present invention were evaluated according to NIH procedures as described by R. Vince et al., Biochem. Biophys.Res.Comm., 156, 1046, 1988 and by O. S. Weislow et al. J. Natl.Canc. Inst., 81. 577,1988.
It was possible to evaluate for many compounds of the invention:
a) the effective concentration 50% (EC50), which represents the concentration of the tested compound resulting in 50% reduction of the viral cytopathic effect.
c) the therapeutic index TI50 which is determined as the IC50 /EC50 ratio.
Only substances able to cause at least a 50% or greater reduction of viral cytopathic effect are kept in consideration for further investigation.
(§2) The methods, the test conditions, the evaluation criteria of the anti-HIV activity in vitro are described by Weislow, O. W., Kieser, R., Fine, D., Bader, J., Shoemaker, R. H., Boyd, M. R.: New soluble-formazan assay for HIV-1 cytopathic effects: application to high-flux screening of synthetic and natural products for AIDS-antiviral activity. J. Nati, Cancer Inst. 81:577-586,1989.

[1] = system: human T4-lymphocyte cell line (CEM); assay: growth inhibition of normal uninfected cells (CEM); type: cell-based; details: CCRF-CEM, read-out: IC50 (toxic concentration, 50% growth inhibition of normal uninfected cells)
Procedure: as §1
b) the inhibitory concentration 50% (IC50) which represents the toxic concentration of drug resulting in 50% growth inhibition of normal uninfected cells.
as §2

[2] = relative lipophylia (RM) by reverse phase thin layer chromatography; type: physicochemical; details: rp-tlc, acetone/water 2:1
Procedure: The lipophylic character of the synthesized compounds was evaluated with reverse phase, thin layer chromatography.
The non-polar stationary phase is represented by plates of Merck 60 F254 silanized silica gel, whereas the polar phase consists of an acetone/water mixture (2:1).
The compounds were solubilized in chloroform (3 mg/ml).
The RM values were calculated from the average experimental values of RF, obtained from three chromatograms using the formula: […]
Higher values of RM corresponding to lower values of RF indicate more lipophylic compounds.

[3] = silanized silica gel Merck 60 F254 plates, average of three chromatograms, read-out: RM (relative lipophylia)

Row | Structure (SMILES) | chromatographic logP [2] | further results
1 | Fc1cccc(F)c1C1SCc2nc3ccccc3n21 (racemic) [XXII, (±) 1-(2,6-difluorophenyl)-1H,3H-thiazole [3,4-a] benzimidazole] |  | EC50 (HIV): 1 µM; TI50 (therapeutic index) (HIV): 80; IC50 [1]: 80 µM; chromatographic logP [2, 3]: -0.475
2 | Fc1cccc(Cl)c1C1SCc2nc3ccccc3n21 (racemic) [XXIX, (±) 1-(2-chloro-6-fluorophenyl)-1H,3H-thiazole [3,4-a] benzimidazole] | -0.452 | EC50 (HIV; HIV-infected CEM cells): 0.596 µM; TI50 (therapeutic index) (HIV): 32.8; IC50 ([1]; uninfected CEM cells): 19.6 µM
3 | Clc1cccc(Cl)c1C1SCc2nc3ccccc3n21 (racemic) [XXVI, (±) 1-(2,6-dichlorophenyl)-1H,3H-thiazole [3,4-a] benzimidazole] | -0.402 | EC50 (HIV; HIV-infected CEM cells): 0.257 µM; TI50 (therapeutic index) (HIV): 86.8; IC50 ([1]; uninfected CEM cells): 22.3 µM
4 | O=[N+]([O-])c1ccc(Cl)cc1C1SCc2nc3ccccc3n21 (racemic) [XXXII, (±) 1-(2-nitro-5-chlorophenyl)-1H,3H-thiazole [3,4-a] benzimidazole] | -0.387 | 
5 | Brc1ccccc1C1SCc2nc3ccccc3n21 (stereo not shown) [I] | -0.41 | 
6 | Clc1ccccc1C1SCc2nc3ccccc3n21 (stereo not shown) [VII] | -0.393 | 
7 | COc1cccc(C2SCc3nc4ccccc4n32)c1 (stereo not shown) [XII] | -0.436 | 
8 | Fc1cccc(C2SCc3nc4ccccc4n32)c1F (stereo not shown) [XIX] | -0.452 | 
9 | Clc1cccc(C2SCc3nc4ccccc4n32)c1Cl (stereo not shown) [XXIV] | -0.355 | 
10 | Clc1cc(Cl)cc(C2SCc3nc4ccccc4n32)c1 (stereo not shown) [XXVIII] |  | chromatographic logP [2, 3]: -0.337
11 | Clc1ccc(C2SCc3nc4ccccc4n32)c(Cl)c1 (stereo not shown) [XXV] | -0.329 | 
12 | N#Cc1cccc(C2SCc3nc4ccccc4n32)c1 (stereo not shown) [XXXIII, 1-(3-cyano-phenyl)-1H,3H-thiazole [3,4-a] benzimidazole] |  | EC50 (HIV; HIV-infected CEM cells): 2.94 µM; TI50 (therapeutic index) (HIV): 13.1; IC50 ([1]; uninfected CEM cells): 38.3 µM
13 | O=[N+]([O-])c1cc(C2SCc3nc4ccccc4n32)ccc1Cl (stereo not shown) [XXXI] | -0.414 | 
14 | O=[N+]([O-])c1ccccc1C1SCc2nc3ccccc3n21 (stereo not shown) [XXXVI, 1-(2-nitro-phenyl)-1H,3H-thiazole [3,4-a] benzimidazole] |  | EC50 (HIV; HIV-infected CEM cells): 17.2 µM; TI50 (therapeutic index) (HIV): 2.16; IC50 ([1]; uninfected CEM cells): 37.2 µM
15 | O=[N+]([O-])c1ccc(Cl)c(C2SCc3nc4ccccc4n32)c1 (stereo not shown) [XXX] | -0.423 | EC50 (HIV; HIV-infected CEM cells): 15.9 µM; TI50 (therapeutic index) (HIV): > 3.42; IC50 ([1]; uninfected CEM cells): > 54.4 µM
16 | Fc1ccc(C2SCc3nc4ccccc4n32)c(F)c1 (stereo not shown) [XX] | -0.452 | 
17 | Cc1ccccc1C1SCc2nc3ccccc3n21 (stereo not shown) [X] | -0.452 | 

The next lines start with results.

Row | chromatographic logP [2] | Structure (SMILES) | further results
18 | -0.468 | Fc1ccccc1C1SCc2nc3ccccc3n21 (racemic) [IV, (±) 1-(2-fluorophenyl)-1H,3H-thiazole [3,4-a] benzimidazole] | EC50 (HIV; HIV-infected CEM cells): 7.63 µM; TI50 (therapeutic index) (HIV): > 16.5; IC50 ([1]; uninfected CEM cells): > 126 µM
19 | -0.434 | Fc1cccc(C2SCc3nc4ccccc4n32)c1 (racemic) [V, (±) 1-(3-fluorophenyl)-1H,3H-thiazole [3,4-a] benzimidazole] | EC50 (HIV; HIV-infected CEM cells): 5.74 µM; TI50 (therapeutic index) (HIV): 11.8; IC50 ([1]; uninfected CEM cells): 67.4 µM
20 | -0.43 | Brc1ccc(C2SCc3nc4ccccc4n32)cc1 (stereo not shown) [III] | 
21 | -0.406 | Brc1cccc(C2SCc3nc4ccccc4n32)c1 (stereo not shown) [II] | 
22 | -0.402 | Clc1ccc(C2SCc3nc4ccccc4n32)cc1 (stereo not shown) [IX] | 
23 | -0.428 | Clc1cccc(C2SCc3nc4ccccc4n32)c1 (stereo not shown) [VIII] | 
24 | -0.412 | Fc1ccc(C2SCc3nc4ccccc4n32)cc1 (stereo not shown) [VI] | 
25 | -0.477 | COc1ccc(C2SCc3nc4ccccc4n32)cc1 (stereo not shown) [XIII] | 
26 | -0.349 | FC(F)(F)c1ccccc1C1SCc2nc3ccccc3n21 (stereo not shown) [XIV] | 
27 | -0.399 | Cc1cccc(C2SCc3nc4ccccc4n32)c1 (stereo not shown) [XI] | 
28 | -0.506 | N#Cc1ccc(C2SCc3nc4ccccc4n32)cc1 (stereo not shown) [XVIII] | 
29 | -0.591 | Oc1cccc(C2SCc3nc4ccccc4n32)c1 (stereo not shown) [XVII] | EC50 (HIV; HIV-infected CEM cells): 114 µM; TI50 (therapeutic index) (HIV): 1.11; IC50 ([1]; uninfected CEM cells): 127 µM
30 | -0.387 | FC(F)(F)c1ccc(C2SCc3nc4ccccc4n32)cc1 (stereo not shown) [XVI] | 
31 | -0.378 | FC(F)(F)c1cccc(C2SCc3nc4ccccc4n32)c1 (stereo not shown) [XV] | 
32 | -0.43 | Fc1ccc(C2SCc3nc4ccccc4n32)cc1F (stereo not shown) [XXIII] | 
33 | -0.362 | Clc1ccc(C2SCc3nc4ccccc4n32)cc1Cl (stereo not shown) [XXVII] | 
